Data published in patent US20240392239A1, “METHODS FOR MODULATING CELL PLURIPOTENCY AND SELF-RENEWAL PROPERTY” (Memorial Sloan-Kettering Cancer Center, priority 2021, published 2024).

Assays:
Rex1::GFPd2 ESCs = assay: Exit from naïve pluripotency, Rex1::GFPd2 reporter analysis; assay type: cell-based, mouse; details: 2i/LIF withdrawal for 40 h; 50 μM (FIG. 4I)
Protocol: 2i/LIF-cultured ESCs were seeded at least 24 h prior to being washed with PBS and changed into serum-free maintenance medium without 2i or LIF at the indicated time before harvest (12, 24 or 40 h). Unless otherwise noted, cells were adapted to serum/LIF+2i culture prior to exit from naïve pluripotency.
Rex1::GFPd2 analysis. On the day of analysis, cells were trypsinized and resuspended in FACS buffer (PBS+2% FBS+1 mM EDTA) containing 4,6-diamidino-2-phenylindole (DAPI, 1 μg/mL). […] Viable cells were those excluding DAPI. Rex1::GFPd2 expression was measured by GFP mean fluorescence intensity (MFI) and quantified using FCS Express v7.0.5 or FlowJo v10.8.0.

[1] = test system: non-small cell lung cancer (NSCLC) cell lines (H2170, A549, Calu-1); assay: Isotope tracing ([U-13C] glucose or [U-13C] glutamine) of TCA cycle metabolites in NSCLC cell lines; assay type: cell-based, human; details: 50 μM for 24 h
Protocol: (§1) C2C12 cells were maintained at sub-confluence as myoblasts unless otherwise noted. All myoblast experiments were performed in high glucose DMEM supplemented with 10% FBS and 4 mM L-glutamine. For differentiation into myotubes, C2C12 cells were grown to 100% confluence for three days and then washed with PBS and changed into differentiation medium composed of high glucose DMEM supplemented with 2% horse serum (catalog no. 26050070; Gibco), 4 mM L-glutamine and 100× insulin-transferrin-selenium-ethanolamine (ITS-X; catalog no. 51500056; Gibco) for the indicated length of time (3, 5 or 7 days). Differentiation medium was refreshed every day. For non-small cell lung cancer (NSCLC) cell line studies, H2170, A549, and Calu-1 cell lines were thawed and passaged in RPMI-1640 supplemented with 10% FBS before being transitioned to high glucose DMEM supplemented with 10% FBS and 4 mM L-glutamine for several passages prior to experiments. 143B cells were maintained in high glucose DMEM supplemented with sodium pyruvate, 10% FBS and penicillin-streptomycin. All cells routinely tested negative for Mycoplasma.
For mass spectrometric analyses in C2C12 myoblasts and NSCLC cell lines, cells were seeded in six-well plates and medium was changed 24 h later. […] 48 h prior to harvest, myoblasts were supplemented with 1 μg/mL doxycycline to induce shRNA expression. For analysis of myotubes, cells seeded in six-well plates were grown to 100% confluence for 3 days, washed with PBS and changed to differentiation medium that was refreshed every day for 7 days. On the final day of differentiation, cells were washed with PBS and changed to experimental medium described above. For analysis of C2C12 myotube genetic hairpin lines, cells were processed as described above but medium was supplemented with 1 μg/mL doxycycline for the final four days of differentiation to induce shRNA expression. ESCs and NSCLC lines treated with inhibitors were processed as described above but medium was supplemented with DMSO, 50 μM BMS-303141 (catalog no. SML0784; Sigma), 5 mM dichloroacetate (catalog no. 3447795; Sigma) or 10 μM UK-5099 (catalog no. 4186; Tocris) for 24 h prior to harvest. At harvest, metabolites were extracted with 1 mL ice-cold 80% methanol containing 2 μM deuterated 2-hydroxyglutaratc (d-2-hydroxyglutaric-2,3,3,4,4-d5 acid (d5-2HG)). […]
(§2) Gas chromatography-mass spectrometry. […] Samples were analyzed using an Agilent 7890A Gas Chromatograph coupled to an Agilent 5977C mass selective detector. […] Peaks representing compounds of interest were extracted and integrated using the MassHunter software v.B.08 (Agilent Technologies) and then normalized to both the internal standard (d5-2HG) peak area and protein content of triplicate samples as determined by bicinchoninic acid assay (Thermo Fisher Scientific). […]

[2] = test system: mouse embryonic stem cells (ESCs); assay: [U-13C] glucose tracing of TCA cycle metabolites in mouse embryonic stem cells; assay type: cell-based
Protocol: Metabolic analyses. […] For mass spectrometric analyses in C2C12 myoblasts and NSCLC cell lines, cells were seeded in six-well plates and medium was changed 24 h later. […] 48 h prior to harvest, myoblasts were supplemented with 1 μg/mL doxycycline to induce shRNA expression. For analysis of myotubes, cells seeded in six-well plates were grown to 100% confluence for 3 days, washed with PBS and changed to differentiation medium that was refreshed every day for 7 days. On the final day of differentiation, cells were washed with PBS and changed to experimental medium described above. For analysis of C2C12 myotube genetic hairpin lines, cells were processed as described above but medium was supplemented with 1 μg/mL doxycycline for the final four days of differentiation to induce shRNA expression. ESCs and NSCLC lines treated with inhibitors were processed as described above but medium was supplemented with DMSO, 50 μM BMS-303141 (catalog no. SML0784; […] Sigma) or 10 μM UK-5099 (catalog no. 4186; Tocris) for 24 h prior to harvest. […] After overnight incubation at -80° C., lysates were collected and centrifuged at 21,000 g for 20 min to remove protein. All extracts were further processed by LCMS (for analysis of NADH, lactate and pyruvate (deuterium labeling and lactate/pyruvate ratio) and succinate (deuterium labeling only) or GCMS (for all other analyses) as described below. Gas chromatography-mass spectrometry. […] Metabolites were further derivatized by adding 80 μl of N-methyl-N-(trimethylsilyl) trifluoroacetamide+1% TCMS (Thermo Fisher Scientific) and 70 μl ethyl acetate (Sigma-Aldrich) and then incubated at 37° C. for 30 min. Samples were analyzed using an Agilent 7890A Gas Chromatograph coupled to an Agilent […] mass selective detector. The gas chromatograph was operated in splitless injection mode with constant helium gas flow at 1 ml min^-1; 1 μl of derivatized metabolites was injected onto an HP-5 ms column and the gas chromatograph oven temperature ramped from 60 to 290° C. for 25 min. Peaks representing compounds of interest were extracted and integrated using the MassHunter software v.B.08 (Agilent Technologies) and then normalized to both the internal standard (d5-2HG) peak area and protein content of triplicate samples as determined by bicinchoninic acid assay (Thermo Fisher Scientific). Steady-state metabolite pool levels were derived by quantifying the following ions: d5-2HG, 354 m/z; αKG, 304 […]; citrate, 465 m/z; fumarate, 245 m/z; malate, 335 m/z; and succinate, 247 m/z. All peaks were manually inspected and verified relative to known spectra for each metabolite. Enrichment of [^13C] or [^2H] was assessed by quantifying the abundance of the following ions: aspartate, 334-346 m/z; citrate, 465-482 m/z; fumarate, 245-254 m/z; and malate, 335-347 m/z. […]

[3] = test system: ASNase-expressing 143B human osteosarcoma cells; assay: [U-13C] asparagine tracing in ASNase-expressing 143B cells; assay type: cell-based; details: 50 μM for 24 h (FIGS. 6E and 6F)
Protocol: 143B cells were plated in six-well plates; 24 h later, media was changed to DMEM supplemented with 10% dialyzed FBS, 1 mM asparagine and DMSO or 50 μM BMS-303141. After 20 h, media was changed to DMEM supplemented with 10% dialyzed FBS, 1 mM [U-^13C]asparagine and DMSO or 50 μM BMS-303141. Cells were extracted with 300 μL 80% methanol containing Valine-D8 as an internal control. 143B extracts were further processed by LCMS, described below.
Liquid chromatography-mass spectrometry.

C2C12 myoblasts = assay: [U-13C] glucose tracing of TCA cycle metabolites in C2C12 myoblasts; assay type: cell-based, mouse
Protocol: as §1, with “143B cells were maintained in high glucose DMEM supplemented with sodium pyruvate, 10% FBS and penicillin-streptomycin. All cells routinely tested negative for Mycoplasma.” left out
as §2

[4] = test system: control and Acly-edited ESCs; details: 2i/LIF withdrawal for 40 h with 5 mM sodium acetate, reseeded into 2i and LIF (FIG. 12K)
From the text: Colony formation assay. […] Medium was refreshed every 3 days.

[5] = test system: control and Acly-edited ESCs; details: labeled acetate, 5 mM; 40 h of 2i/LIF withdrawal (FIG. 12D)
Protocol: Fatty acid analyses. To analyze fatty acids in scrum/LIF+2i-cultured ESCs undergoing exit from pluripotency, ESCs were seeded in maintenance medium in six-well plates overnight. The next day, cells were washed with PBS and changed into medium containing a 1:1 mix of glutamine-free DMEM and Neurobasal medium including N-2 supplement, B-27 supplement, 2-mercaptoethanol and 2 mM L-glutamine. […] At harvest, lysates were collected in PBS and centrifuged at 6,800 g for 5 min to pellet cells. To isolate fatty acids, cell pellets were resuspended in 400 μl HPLC grade methanol followed by 800 μl HPLC grade chloroform and samples were vortexed for 10 min at 4° C. 300 μl HPLC grade water then added to induce phase separation. 800 μl of the bottom chloroform layer was moved to a new tube and lyophilized. Dried samples were saponified by resuspending in 1 ml of 80% methanol with 0.3 M KOH and heating at 80° C. for 1 h in a glass vial. […]
Liquid chromatography-mass spectrometry. […] Metabolite quantitation was performed using a Q Exactive HF-X Hybrid Quadrupole-Orbitrap Mass Spectrometer equipped with an Ion Max API source and H-ESI II probe, coupled to a Vanquish Flex Binary UHPLC system (Thermo Scientific). […] Metabolites were detected over mass range of 70-1050 m/z in full scan positive mode, or SIM in positive mode using a quadrupole isolation window of 0.7 m/z. […]

Acly-edited ESCs [6] = details: 2i/LIF withdrawal for 40 h, 5 mM sodium acetate (FIG. 12E)
From the text: Western blotting. Protein lysates were extracted in 1×RIPA buffer (Cell Signaling Technology), separated by SDS-polyacrylamide gel electrophoresis and transferred to nitrocellulose membranes (Bio-Rad). For histone blots, cell pellets were flash frozen in ethanol and resuspended in Laemmli buffer for sonication. Samples were mixed with 5% BME and 0.01% bromophenol blue prior to identical separation as for protein lysates. Membranes were blocked in 3% milk in Tris-buffered saline with 0.1% Tween 20 (TBST) or 5% BSA in TBST and incubated at 4° C. with primary antibodies overnight. After TBST washes the next day, membranes were incubated with horseradish peroxidase-conjugated secondary antibodies for at least 2 h, incubated with enhanced chemiluminescence (Thermo Fisher Scientific) and imaged with an SRX-101A X-ray Film Processor (Konica Minolta). […]

[7] = test system: control and Acly-edited ESCs
Protocol: Quantification of gene expression. RNA was isolated from six-or twelve-well plates using TRIzol (Invitrogen) according to the manufacturer's instructions and 200 ng RNA was used for complementary DNA (cDNA) synthesis using the iScript cDNA Synthesis Kit (Bio-Rad). Quantitative real-time PCR analysis was performed in technical triplicate using QuantStudio 5 or 6 Flex (Applied Biosystems) with Power SYBR Green Master Mix (Thermo Fisher Scientific). All data were generated using cDNA from 3 independent wells for each condition. Actin was used as an endogenous control for all experiments. See Supplementary Table 1 for qRT-PCR primer sequences.

ESC = details: previous reports (ref 39); cited from earlier work
Acly-edited ESCs [8] = details: 2i/LIF withdrawal for 40 h; 5 mM sodium acetate (FIG. 12F)
Protocol: Viability assays. Serum/LIF+2i-adapted ESCs were seeded at a density of 24,000 cells per well of a 24-well plate in triplicate or quadruplicate. 24 h later, cells were washed with PBS and changed into either fresh scrum/LIF+2i medium or medium containing a 1:1 mix of glutamine-free DMEM and Neurobasal medium including N-2 supplement, B-27 supplement, 2-mercaptoethanol and 2 mM L-glutamine for 40 h. Cells were evaluated for propidium iodide (PI) on an LSRFortessa flow cytometer using FACSDiva software v8.0 (BD Biosciences). Analysis of PI exclusion was performed with FCS Express v.7.05 or FlowJo v10.8.0.

[9] = [U-13C] glucose, three NSCLC cell lines (FIG. 6B)

Which “downregulation of Rex1::GFPd2 reporter activity following 2i/LIF withdrawal” value (Rex1::GFPd2 ESCs) does the source give for `COc1ccc(-c2ccccc2)cc1NS(=O)(=O)c1cc(Cl)cc(Cl)c1O` [BMS-303141] here?
Its value is “almost completely prevented”.

What about the “mal+2/cit+2 ratio” value ([1]; [U-13C] glucose, three NSCLC cell lines (FIG. 1E)) of the same compound?
The value was “increased”.

What about the “fraction of citrate m+2” value [1, 9] of the same compound?
The value was “only a minor effect”.

What about the “proportion of malate containing two labeled carbons (malate m+2)” value [1, 9] of the same compound?
Its value is “increased”.

What about the glutamine anaplerosis ([1]; [U-13C] glutamine, three NSCLC cell lines (FIG. 6C)) of the same compound?
Its glutamine anaplerosis is “did not uniformly affect”.

What about the “decrease in enrichment of the m+2 isotopologue of malate relative to citrate (Mal+2/Cit+2)” value ([2]; [U-13C] glucose, serum/LIF ESCs, 50 μM for 24 h (FIG. 2B)) of the same compound?
The value was “mitigated”.

What about the “ratio of cit+2/cit+4” value [3] of the same compound?
The value was “significantly increased”.

For `N#C/C(=C\c1cn(-c2ccccc2)c2ccccc12)C(=O)O` [UK-5099], which “incorporation of glucose-derived carbons into TCA cycle metabolites” value ([2]; ESCs, 10 μM UK-5099 (MPCi) for 24 h (FIG. 10E)) is on record?
The value was “reduced”.

What about the “mal+2/cit+2 ratio” value ([2]; ESCs, 10 μM UK-5099 (MPCi) for 24 h (FIG. 10F)) of the same compound?
Its value is “repressed”.

What about the “incorporation of glucose-derived carbons into TCA cycle metabolites” value (C2C12 myoblasts; 10 μM UK-5099 (MPCi) for 24 h (FIG. 10C)) of the same compound?
Its value is “reduced”.

And the “mal+2/cit+2 ratio” value (C2C12 myoblasts; 10 μM UK-5099 (MPCi) for 24 h (FIG. 10D))?
The value was “repressed”.

Which “processivity (malate m+2/citrate m+2 ratio)” value ([2]; S/L-cultured ESCs, 5 mM sodium acetate for 24 h (FIGS. 15A-15D)) does the source give for `CC(=O)[O-].[Na+]` [acetate, sodium acetate] here?
The value was “enhances”.

What about the “colony formation ability (AP-positive colonies)” value [4] of the same compound?
Its value is “tended to increase”.

And the “de novo lipid synthesis (fractional labeling of palmitate)” value [5]?
The value was “contributed”.

And the histone acetylation (Acly-edited ESCs [6])?
The histone acetylation was “restored”.

And the “markers of naïve pluripotency” value ([7]; 2i/LIF withdrawal for 40 h, 5 mM sodium acetate (FIGS. 12I-12J))?
Its value is “tended to increase”.

What about the “effects of ACL loss on exit from pluripotency” value ([7]; Acly-edited ESCs, 5 mM sodium acetate, qRT-PCR, Rex1::GFPd2 MFI and AP-positive colonies (FIGS. 12I-12K)) of the same compound?
The value was “does not reverse”.

And the ESC self-renewal (ESC)?
The ESC self-renewal was “promotes”.

And the “decline in viability observed in Acly-edited clones” value (Acly-edited ESCs [8])?
Its value is “only minimally rescued”.
